Publication PMC10388363, “Novel 1,4-Dihydropyridines as Specific Binders and Activators of SIRT3 Impair Cell Viability and Clonogenicity and Downregulate Hypoxia-Induced Targets in Cancer Cells” (Journal of Medicinal Chemistry, 2023)

Key:
human SIRT3 = biological target: T1, human SIRT3 (Homo sapiens, UniProt Q9NTG7); experiment: Surface plasmon resonance binding assay, immobilized SIRT3; details: SPR, Scatchard analysis, analytes 5-80 μM
T1 construct: pET151D/Topo (Sirt3-114-380 and Sirt5-34-302); His tag (N, cleaved yes); made in house; host or cells: Escherichia coli
T1 sequence (Q9NTG7 114-380): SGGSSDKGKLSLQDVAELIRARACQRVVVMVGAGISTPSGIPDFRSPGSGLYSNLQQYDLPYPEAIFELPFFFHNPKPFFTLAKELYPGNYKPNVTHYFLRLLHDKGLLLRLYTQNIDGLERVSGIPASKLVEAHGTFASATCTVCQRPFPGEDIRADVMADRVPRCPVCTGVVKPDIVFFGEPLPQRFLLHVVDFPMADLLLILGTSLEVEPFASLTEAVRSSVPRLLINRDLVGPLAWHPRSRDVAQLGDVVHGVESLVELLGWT
Method: Next, surface plasmon resonance (SPR) experiments were conducted with selected SIRT3 activators 2e and 3a–d to ascertain their biophysical interaction with the human SIRT3 protein. Their parental compounds 2 and 3, together with honokiol, were used as positive controls. The experiments were carried out twice at different concentrations (5, 10, 20, 40, and 80 μM), by injecting the compounds at increasing doses (Figure 5). The resonance units (RU) increase with respect to baseline indicates the formation of the SIRT3/ligand complex, the plateau region represents the steady-state phase of the interaction (RUeq, RU at equilibrium) and the decrease in RU after 180 s represents dissociation of analytes from the immobilized SIRT3 protein after injection of the buffer.
SPR experiments were carried out using a SensiQ Pioneer system (SensiQ, Oklahoma City, OK, USA), essentially as in Genovese et al. 2020[84] and in Battista et al. 2021,[85] with some modifications, as follows.
The sensor chip (COOH5) was chemically activated by a 35 μL injection of a 1:1 mixture of […] (200 mM) and N-hydroxysuccinimide (50 mM) at a flow rate of 5 μL/min. Sirtuin3 (ligand) was immobilized on activated sensor chips via amine coupling. Immobilization was carried out in 20 mM sodium acetate at pH 4.0; unreacted groups were blocked by injecting 1 M ethanolamine hydrochloride (35 μL). Sirtuin3 immobilization level obtained was 1500–4000 RU.
The analytes, dissolved in 100% DMSO at 10 mM concentration, were diluted in buffer 20 mM Hepes, 150 mM NaCl, 0.005% surfactant P20 buffer (HBSP) to a concentration of 200 μM (2% final DMSO concentration), further diluted in HBSP + 2% DMSO (HBSP2%D) and injected on the sensor chip at a constant flow rate (nominal flow rate = 30 μL/min) at the following concentrations: 5, 10, 20, 40, and 80 μM.
The RU increase relative to baseline indicates complex formation (taking place at known analytes concentrations at each moment in the gradient); the plateau region represents the steady-state phase of the interaction (RUeq); and the decrease in RU after 180 s represents dissociation of analytes from the immobilized Sirtiun3 after injection of HBSP2%D. Regeneration procedures are based on two long (2000 and 500 s) injections of buffer, separated by a brief (5 s) injection of 10 mM NaOH.
Control experiments were performed in sensor chips treated as described above in the absence of an immobilized ligand. Kinetic evaluation of the sensorgrams was obtained using the SensiQ Qdat program and full fitting with 1, 2, and 3 sites; Scatchard analysis was used to determine apparent KD values.

[1] = system: acK68- and acK122-MnSOD in CAL-62 cells; experiment: Western blot of MnSOD acK68 and acK122 marks in CAL-62 cells; type: cell-based; details: 50 μM, 4 h, CAL-62
Method: K68-MnSOD acetylation promotes a transformation-permissive phenotype, leading to a chemotherapy-resistant breast cancer cell model using cisplatin and doxorubicin.[68] […] The specific SIRT3 inhibitor 3-TYP was utilized as negative control.
Breast cancer cell line MDA-MB-231, anaplastic thyroid cancer cell line CAL-62 and human keratinocytes HaCaT were purchased from ATCC and were cultured in RPMI 1640 medium (R0883 Sigma Aldrich-MERCK) (MDA-MB-231 and CAL-62) or DMEM medium (11965092, Gibco) supplemented with 10% fetal bovine serum (Sigma-Aldrich-MERCK, F9665), 2 mM glutamine (G7513; Sigma-Aldrich-MERCK), 100 units/mL penicillin and 0.1 mg/mL streptomycin (P0781; Sigma-Aldrich-MERCK). Adherent cells were detached by Trypsin–EDTA solution (TA049; Sigma-Aldrich-MERCK). Cells were maintained at 37 °C in humidified incubator with 5% CO2. Cells were treated with […] (CoCl2) (Merck; C8661) dissolved in distilled, sterile water for 24 h to induce hypoxia (200 μM). […]
Treated and untreated cells were collected and centrifuged at 3000 rpm for 5 min. […] Protein concentration was determined by the Bradford assay (Bio-Rad; 500-0205). […] After three more washes in PBST, the detection of the relevant protein was assessed by enhanced chemiluminescence (Lite Ablot TURBO, Euro-Clone; EMP012001). […]

| Structure (SMILES) | Kd (human SIRT3) | ratio acK68- or acK122-MnSOD/MnSOD [1] |
| --- | --- | --- |
| CCOC(=O)C1=CN(C(=O)c2ccc(OC)c(OC)c2)C=C(C(=O)OCC)C1c1ccccc1 [Compound 3c, Diethyl 1-(3,4-dimethoxybenzoyl)-4-phenyl-1,4-dihydropyridine-3,5-dicarboxylate] | 29 µM | – |
| CCOC(=O)C1=CN(C(=O)c2cc(OC)cc(OC)c2)C=C(C(=O)OCC)C1c1ccccc1 [Compound 3d, Diethyl 1-(3,5-dimethoxybenzoyl)-4-phenyl-1,4-dihydropyridine-3,5-dicarboxylate] | – | decrease |
